Target: T1, human metabotropic glutamate receptor mGluR5 (Homo sapiens, UniProt P41594)
T1 construct: expressed in transfected cells; host or cells: CHO-K1
Experiment: Cytosolic calcium studies with stably transfected cells (CHO-K1)
Type: cell-based
Protocol: Functional Assay of mGluR5 Receptors Cytosolic Calcium Studies with Stably Transfected Cells
Chinese hamster ovary cells (CHO-K1 cells), stably transfected for inducible expression of a human metabotropic glutamate receptor mGluR5, are seeded into black clear bottom 96 well plates at a density of 35.000 cells per well. The standard growth medium used (Dulbecco's modified Eagle Medium, DMEM plus L-proline) contains the appropriate inducer isopropyl-β-D-thiogalactopyranosid (IPTG) to achieve optimal receptor expression. One day after seeding the growth medium is exchanged for reconstituted Ca-Kit (Molecular Devices, USA) and incubated for one hour. Ca-Kit is reconstituted in an assay buffer containing 20 mM HEPES pH 7.4, glutamic-pyruvate transaminase, pyridoxal phosphate and sodium pyruvate in Hank's balanced salt solution (HBBS). Agonistic compounds to the receptor elicit increases in cytosolic calcium which can be measured as increases in fluorescence signals by use of a fluorescence imaging plate reader (Molecular Devices). […] Similarly, for the characterization of positive allosteric modulators, a dilution series of the test compound is added online to 384 well plates containing the described dye loaded cells and after a preincubation time of 5 minutes stimulated by a basal cell concentration of the agonist L-glutamate giving about 20% of the maximal signal.
The fluorescence signal increase after addition of agonist reflects the increase of cytosolic calcium. Inconsistencies in the amount of cells per well are normalised by using the spatial uniformity correction of the FLIPR operating software Screenworks. The mean of replicated temporal data (n=3-5) is calculated and used for graphical representation. For the evaluation of the pharmacology, the calcium changes in response to different concentrations of agonist or antagonist are determined using a maximum minus minimum (MaxMin) calculation.
All responses (RFU-values) are determined as percentage of control (=maximum response). EC50 and IC50 are calculated according the logistic equation using Prism 4.0 (GraphPad Software, USA).

T1 sequence (P41594 21-1212): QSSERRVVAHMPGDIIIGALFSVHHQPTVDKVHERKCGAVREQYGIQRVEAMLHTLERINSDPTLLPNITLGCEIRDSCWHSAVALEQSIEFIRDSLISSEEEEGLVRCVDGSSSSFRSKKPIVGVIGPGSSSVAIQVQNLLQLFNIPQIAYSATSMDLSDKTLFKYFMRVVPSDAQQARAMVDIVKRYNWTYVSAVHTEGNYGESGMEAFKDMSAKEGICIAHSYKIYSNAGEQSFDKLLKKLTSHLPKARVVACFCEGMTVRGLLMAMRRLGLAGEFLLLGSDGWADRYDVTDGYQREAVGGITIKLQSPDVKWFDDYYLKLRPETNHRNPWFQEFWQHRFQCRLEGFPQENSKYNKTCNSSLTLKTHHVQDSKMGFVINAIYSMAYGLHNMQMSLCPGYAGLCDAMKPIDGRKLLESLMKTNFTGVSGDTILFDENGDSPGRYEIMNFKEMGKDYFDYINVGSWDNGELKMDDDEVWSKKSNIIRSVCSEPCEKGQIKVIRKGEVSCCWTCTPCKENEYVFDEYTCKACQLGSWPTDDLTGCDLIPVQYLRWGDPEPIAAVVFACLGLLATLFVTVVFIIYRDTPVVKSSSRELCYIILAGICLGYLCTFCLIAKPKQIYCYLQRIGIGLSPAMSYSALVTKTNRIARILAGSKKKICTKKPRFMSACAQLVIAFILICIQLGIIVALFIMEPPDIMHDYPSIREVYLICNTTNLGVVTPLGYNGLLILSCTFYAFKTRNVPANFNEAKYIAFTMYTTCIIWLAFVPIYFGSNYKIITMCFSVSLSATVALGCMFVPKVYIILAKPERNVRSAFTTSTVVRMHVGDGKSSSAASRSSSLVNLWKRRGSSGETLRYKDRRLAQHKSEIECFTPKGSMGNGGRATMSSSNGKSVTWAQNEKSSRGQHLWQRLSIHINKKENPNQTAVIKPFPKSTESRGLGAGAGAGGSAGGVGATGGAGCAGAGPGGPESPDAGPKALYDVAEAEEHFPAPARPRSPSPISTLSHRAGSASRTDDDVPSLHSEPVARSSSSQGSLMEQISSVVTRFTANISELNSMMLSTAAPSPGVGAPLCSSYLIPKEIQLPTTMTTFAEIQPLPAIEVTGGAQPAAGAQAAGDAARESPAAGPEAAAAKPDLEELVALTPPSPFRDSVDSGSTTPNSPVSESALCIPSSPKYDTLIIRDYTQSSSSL

Row | Structure (SMILES) | EC50 [nM]
1 | Fc1cc(F)cc(C#Cc2cnc3nccnc3c2)c1 [Example 108, 7-((3,5-Difluorophenyl)ethynyl)pyrido[2,3-b]pyrazine] | 4100
2 | O=C(c1cc2ncc(C#Cc3ccccc3)cn2n1)N1CCCC1 [Example 19, (6-Phenylethynyl-pyrazolo[1,5-a]pyrimidin-2-yl)-pyrrolidin-1-yl-methanone] | 610
3 | Cn1cnc2cc(C#Cc3ccc(F)cc3)cnc21 [Example 106, 6-(4-Fluoro-phenylethynyl)-3-methyl-3H-imidazo[4,5-b]pyridine] | 57
4 | O=C(c1nc2ccc(C#Cc3ccc(F)cc3)cn2n1)N1CCCCC1 [Example 59, [6-(4-Fluoro-phenylethynyl)-[1,2,4]triazolo[1,5-a]pyridin-2-yl]-piperidin-1-yl-methanone] | 6900
5 | Clc1cccc(C#Cc2cnc3nccnc3c2)c1 [Example 111, 7-((3-Chlorophenyl)ethynyl)pyrido[2,3-b]pyrazine] | 120
6 | Fc1cccc(F)c1C#Cc1cnc2ncsc2c1 [Example 78, 6-((2,6-Difluorophenyl)ethynyl)thiazolo[4,5-b]pyridine] | 1700
7 | O=C(c1cc2ncc(C#Cc3ccccc3)cn2n1)N1CCC(c2ccccc2)CC1 [Example 18, (6-Phenylethynyl-pyrazolo[1,5-a]pyrimidin-2-yl)-(4-phenyl-piperidin-1-yl)-methanone] | 340
8 | C(#Cc1ccc2ccnn2c1)C1=CCCCC1 [Example 30, 6-Cyclohex-1-enylethynyl-pyrazolo[1,5-a]pyridine] | 29
9 | C(#Cc1ccc2nc(-c3ccco3)nn2c1)c1ccccc1 [Example 84, 2-Furan-2-yl-6-phenylethynyl-[1,2,4]triazolo[1,5-a]pyridine] | 410
10 | C(#Cc1cnc2ccnn2c1)Cc1ccccc1 [Example 14, 6-(3-Phenyl-prop-1-ynyl)-pyrazolo[1,5-a]pyrimidine] | 120
11 | O=C(c1cc2ncc(C#Cc3ccccc3)cn2n1)N1CCCCCC1 [Example 17, Azepan-1-yl-(6-phenylethynyl-pyrazolo[1,5-a]pyrimidin-2-yl)-methanone] | 260
12 | CC(C)(C)OC(=O)N1CC=C(C#Cc2cnc3ccnn3c2)CC1 [Example 12, 4-Pyrazolo[1,5-a]pyrimidin-6-ylethynyl-3,6-dihydro-2H-pyridine-1-carboxylic acid tert-butyl ester] | 1300
13 | C(#Cc1cnc2ncoc2c1)c1ccccc1 [Example 42, 6-Phenylethynyl-oxazolo[4,5-b]pyridine] | 470
14 | Cc1ccc(C#Cc2cnc3cccnc3c2)c(F)c1 [Example 115, 3-((2-Fluoro-4-methylphenyl)ethynyl)-[1,5]naphthyridine] | 690
15 | C(#Cc1cnc2cccnc2c1)c1cccnc1 [Example 101, 3-(Pyridin-3-ylethynyl)-1,5-naphthyridine] | 470
16 | Fc1ccc(C#Cc2cnc3nccnc3c2)c(F)c1 [Example 109, 7-((2,4-Difluorophenyl)ethynyl)pyrido[2,3-b]pyrazine] | 3500
17 | C(#Cc1cnc2ncoc2c1)C1=CCCCC1 [Example 71, 6-Cyclohex-1-enylethynyl-oxazolo[4,5-b]pyridine] | 6.3
18 | Fc1cccc(F)c1C#Cc1cnc2nccnc2c1 [Example 107, 7-((2,6-Difluorophenyl)ethynyl)pyrido[2,3-b]pyrazine] | 3700
19 | O=C(c1nc2ncc(C#Cc3ccccc3)cn2n1)N1CCCCC1 [Example 36, (6-Phenylethynyl-[1,2,4]triazolo[1,5-a]pyrimidin-2-yl)-piperidin-1-yl-methanone] | 940
20 | Fc1ccc(C#Cc2cnc3ncoc3c2)cc1 [Example 70, 6-(4-Fluoro-phenylethynyl)-oxazolo[4,5-b]pyridine] | 1400
21 | Cc1ccccc1C#Cc1cnc2nccnc2c1 [Example 87, 7-(o-Tolylethynyl)-pyrido[2,3-b]pyrazine] | 1100
22 | COc1cnc2ncc(C#Cc3ccccc3)cc2n1 [Example 92, 2-Methoxy-7-(phenylethynyl)pyrido[2,3-b]pyrazine] | 280

The remaining lines, values ahead:

Row | EC50 [nM] | Structure (SMILES)
23 | 93 | Fc1ccc(-c2cc3ncc(C#Cc4ccccc4)cn3n2)cc1 [Example 28, 2-(4-Fluoro-phenyl)-6-phenylethynyl-pyrazolo[1,5-a]pyrimidine]
24 | 520 | Clc1cc(Cl)cc(C#Cc2cnc3ccnn3c2)c1 [Example 2, 6-(3,5-Dichloro-phenylethynyl)-pyrazolo[1,5-a]pyrimidine]
25 | 78 | C(#Cc1ccc2ccnn2c1)c1ccccc1 [Example 29, 6-Phenylethynyl-pyrazolo[1,5-a]pyridine]
26 | 1000 | Fc1ccccc1C#Cc1cnc2ncnn2c1 [Example 48, 6-(2-Fluoro-phenylethynyl)-[1,2,4]triazolo[1,5-a]pyrimidine]
27 | 430 | Fc1cccc(C#Cc2ccc3ncnn3c2)c1 [Example 53, 6-(3-Fluoro-phenylethynyl)-[1,2,4]triazolo[1,5-a]pyridine]
28 | 1800 | Fc1ccc(C#Cc2cnc3ncnn3c2)cc1 [Example 49, 6-(4-Fluoro-phenylethynyl)-[1,2,4]triazolo[1,5-a]pyrimidine]
29 | 1200 | O=C(c1nc2ccc(C#Cc3cccc(F)c3)cn2n1)N1CCCCC1 [Example 57, [6-(3-Fluoro-phenylethynyl)-[1,2,4]triazolo[1,5-a]pyridin-2-yl]-piperidin-1-yl-methanone]
30 | 200 | Fc1cc(F)cc(C#Cc2cnc3ccnn3c2)c1 [Example 11, 6-(3,5-Difluoro-phenylethynyl)-pyrazolo[1,5-a]pyrimidine]
31 | 77 | Cc1ccc(C#Cc2cnc3ccnn3c2)cc1 [Example 9, 6-p-Tolylethynyl-pyrazolo[1,5-a]pyrimidine]
32 | 21 | Cn1cnc2cc(C#Cc3cccc(F)c3)cnc21 [Example 105, 6-(3-Fluoro-phenylethynyl)-3-methyl-3H-imidazo[4,5-b]pyridine]

Source: US20120178742A1, “METABOTROPIC GLUTAMATE RECEPTOR MODULATORS” (MERZ PHARMA GmbH & CO. KGaA, priority 2009, published 2012)
